Common to all, as to assay type: functional
Assay [1] deals with Rattus norvegicus. The experiment in a line: Antidyslipidemic activity in Rattus norvegicus Charles Foster (rat) assessed as activation of post heparin lipolytic activity at 400 mg/kg, po after 18 hr relative to control.
Assay [2] is described as follows: Antioxidant activity assessed as inhibition of xanthine oxidase-mediated superoxide anion release at 100 ug/ml after 30 min relative to control.
The subject of assay [3] is Liver microsome. As to the kind of experiment: Antioxidant activity in Rattus norvegicus (rat) liver microsomes assessed as inhibition of lipid peroxidation at 100 ug/ml after 90 min by thiobarbuteric acid method. (Liver microsomes are a subcellular fraction often used to study metabolism.)
A short description of assay [4]: Antioxidant activity assessed as inhibition of hydroxy radical generation at 100 ug/ml after 90 min by thiobarbuteric acid method.
In assay [5] the test system is Rattus norvegicus. The experiment in a line: Antidyslipidemic activity in high fat diet fed Rattus norvegicus Charles Foster (rat) assessed as activation of liver phopholipase at 100 mg/kg, po administered QD for 30 days relative to control.
In assay [6] the test system is Rattus norvegicus. The experiment in a line: Antidyslipidemic activity in high fat diet fed Rattus norvegicus Charles Foster (rat) assessed as activation of cholesterol acyltransferase in plasma at 100 mg/kg, po administered QD for 30 days relative to control.
Assay [7] concerns Rattus norvegicus. As to the kind of experiment: Antidyslipidemic activity in high fat diet fed Rattus norvegicus Charles Foster (rat) assessed as inhibition of cholesterol-induced phospholipid level in plasma at 100 mg/kg, po administered QD for 30 days relative to control. The settings on record: 720 h.
Assay [8] deals with Rattus norvegicus. As to the kind of experiment: Antidyslipidemic activity in Rattus norvegicus Charles Foster (rat) assessed as inhibition of triton WR1339-induced phospholipid in plasma at 100 mg/kg, po after 18 hr relative to control.
For assay [9], the system named is Rattus norvegicus. As to the kind of experiment: Antidyslipidemic activity in Rattus norvegicus Charles Foster (rat) assessed as inhibition of triton WR1339-induced triglyceride in plasma at 100 mg/kg, po after 18 hr relative to control.
The subject of assay [10] is Rattus norvegicus. As to the kind of experiment: Antidyslipidemic activity in Rattus norvegicus Charles Foster (rat) assessed as activation of post heparin lipolytic activity at 100 mg/kg, po after 18 hr relative to control.
Assay [11] relates to Rattus norvegicus. The experiment in a line: Antidyslipidemic activity in Rattus norvegicus Charles Foster (rat) assessed as inhibition of triton WR1339-induced total cholesterol in plasma at 100 mg/kg, po after 18 hr relative to control. As to conditions: read-out: INH.

By inhibition is commonly meant the relative decrease from the control value, in per cent.

On to `C/C(=N\OC(C)C)C1=CC[C@H]2[C@@H]3CC=C4C[C@@H](O)CC[C@]4(C)[C@H]3CC[C@]12C`, for which the Activity in [1] turned out to be 23%. Moreover, the inhibition in assay [2] was -9%.
In the case of `CC(=O)[C@@]1(O)[C@H](OCCO)C[C@H]2[C@@H]3CC=C4C[C@@H](O)CC[C@]4(C)[C@H]3CC[C@@]21C` [3BETA,17ALPHA-DIHYDROXY-16ALPHA-(2-HYDROXY ETHOXY)PREGN-5-EN-20-ONE], in assay [1], the Activity came to 21%.
In the case of `COCCO[C@@H]1C[C@H]2[C@@H]3CC=C4C[C@@H](O)CC[C@]4(C)[C@H]3CC[C@]2(C)[C@H]1[C@H](C)O` [3BETA,20BETA-DIHYDROXY-16ALPHA-(2-METHOXY ETHOXY)-PREGN-5-EN], in assay [3], the inhibition is -10%. Further, the Activity in assay [1] was found to be 17%.
As for `C[C@H](O)[C@H]1[C@H](OCCOCCO)C[C@H]2[C@@H]3CC=C4C[C@@H](O)CC[C@]4(C)[C@H]3CC[C@]12C` [3BETA,20BETA-DIHYDROXY-16ALPHA-[2(2-HYDROXYETHOXY)-ETHOXY]-PREGN-5-EN], in assay [1], the Activity came to 17%.
As for `CC(=O)OC(C)CO[C@@H]1C[C@H]2[C@@H]3CC=C4C[C@@H](OC(C)=O)CC[C@]4(C)[C@H]3CC[C@]2(C)[C@H]1C(C)=O` (stereo partly drawn) [3BETA-ACETOXY-16ALPHA-(2-ACETOXY PROPOXY)-PREGN-5-EN-20-ONE], the Activity in assay [1] is 13%. Also, in assay [4], the inhibition was -9%.
For `COCCO[C@@H]1C[C@H]2[C@@H]3CC=C4C[C@@H](OC(C)=O)CC[C@]4(C)[C@H]3CC[C@]2(C)[C@H]1C(C)=O` [3BETA-ACETOXY-16ALPHA-(2-METHOXY ETHOXY)-PREGN-5-EN-20-ONE], the Activity in assay [1] came out at 18%.
Turning to `CC(=O)OCCOCCO[C@@H]1C[C@H]2[C@@H]3CC=C4C[C@@H](OC(C)=O)CC[C@]4(C)[C@H]3CC[C@]2(C)[C@H]1C(C)=O` [3BETA-ACETOXY-16ALPHA-[2(2-ACETOXY ETHOXY)-ETHOXY]-PREGN-5-EN-20-ONE], the Activity in assay [1] is reported as 23%; in assay [5], 15%; in assay [6] it was 20%. In addition, the inhibition in vivo at 100 mg/kg in [7] was -22%.
`CC(=O)[C@H]1[C@H](c2cc(F)ccc2N)C[C@H]2[C@@H]3CC=C4C[C@@H](O)CC[C@]4(C)[C@H]3CC[C@@]21C` [3BETA-HYDROXY-16ALPHA-(2-AMINO-5-FLUORO-PHENYL)-PREGN-5-EN-20-ONE]: the Activity is listed as 24% in assay [1], 27% in [5] and 28% in [6]. The inhibition in vivo at 100 mg/kg in assay [7] was -21%.
Regarding `CC(=O)[C@H]1[C@H](OCC(C)O)C[C@H]2[C@@H]3CC=C4C[C@@H](O)CC[C@]4(C)[C@H]3CC[C@@]21C` (stereo partly drawn) [3BETA-HYDROXY-16ALPHA-(2-HYDROXY PROPOXY)PREGN-5-EN-20-ONE], in assay [1], the Activity was 21%.
For the compound `CC(=O)[C@H]1[C@H](Nc2ccc(Cl)cc2)C[C@H]2[C@@H]3CC=C4C[C@@H](O)CC[C@]4(C)[C@H]3CC[C@@]21C` [3BETA-HYDROXY-16ALPHA-(4-CHLORO PHENYLAMINO)-PREGN-5-EN-20-ONE], the inhibition in assay [3] was -8%. Besides, the results for the Activity in assay [1], in assay [5] and in [6] were 31%, 18% and 23%, respectively. Further, the inhibition in vivo at 100 mg/kg in assay [7] is -25%.
For `CC(=O)[C@H]1[C@H](OCCOCCO)C[C@H]2[C@@H]3CC=C4C[C@@H](O)CC[C@]4(C)[C@H]3CC[C@@]21C` [3BETA-HYDROXY-16ALPHA-[2(2-HYDROXY ETHOXY)-ETHOXY]PREGN-5-EN-20-ONE], the Activity in [1] stood at 17%.
`COCCO[C@@H]1C[C@H]2[C@@H]3CC=C4C[C@@H](O)CC[C@]4(C)[C@H]3CC[C@]2(C)[C@H]1C(C)=O` [3BETA-HYDROXY-16ALPHAA-(2-METHOXYETHOXY)PREGN-5-EN-20-ONE]: the Activity in assay [1] worked out at 18%.
With `Cc1ccc(C)c(OCCCC(C)(C)C(=O)O)c1` [GEMFIBROZIL], the inhibition in vivo at 100 mg/kg in [8] is -34%; in assay [9] it was 36%; in assay [7], -31%; in assay [11], 36%. For the same compound, the Activity came to 32% in assay [10], 33% in assay [5] and 31% in [6].

(Values after ChEMBL document CHEMBL3045993, “Expedient synthesis of some novel pregnane derivatives and their evaluation as anti-oxidant and anti-dyslipidemic agents” (2011).)
